This is an account of results in patent US11339171B2, “MDM2 inhibitors” (Gan & Lee Pharmaceuticals, priority 2017, dated 2022).

Experiment [1] deals with T1, MDM2 (Homo sapiens, UniProt Q00987).
T1 construct: made in house
Description: Inhibition test of MDM2-P53 (GST-MDM2, Biotin-P53, Anti-GST-Tb, SA-XL665). To be noted: for inhibitory effect on MDM2 compared with positive control compound HDM201: labels are Example numbers, the compounds with S-configuration are meant. It is filed as binding. The method, boiled down: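 HTRF-type assay using 4 nM GST-MDM2 (final), Biotin-P53, SA-XL665 and anti-GST-Tb in PBS with 0.1% BSA, 5 mM DTT and 1 mM AEBSF. Compounds in 5-fold serial dilutions over twelve points; incubation 90 min at 25° C with shaking before plate-reader read-out.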

The subject of experiment [2] is human osteosarcoma cell line SJSA-1. As to the kind of experiment: Inhibition of proliferation of human osteosarcoma cell line SJSA-1 (DAPI staining, In Cell Analyzer). Particulars: for IC50: Homo sapiens, SJSA-1, 72 h, read-out: IC50 (nM), inhibitory activity on proliferation of human osteosarcoma cell line SJSA-1, SJSA-1, incubated 72 h; for inhibitory effect on human osteosarcoma cell line SJSA-1 compared with positive control compound HDM201: labels are Example numbers, the compounds with S-configuration are meant.

T1 sequence (Q00987 whole entry): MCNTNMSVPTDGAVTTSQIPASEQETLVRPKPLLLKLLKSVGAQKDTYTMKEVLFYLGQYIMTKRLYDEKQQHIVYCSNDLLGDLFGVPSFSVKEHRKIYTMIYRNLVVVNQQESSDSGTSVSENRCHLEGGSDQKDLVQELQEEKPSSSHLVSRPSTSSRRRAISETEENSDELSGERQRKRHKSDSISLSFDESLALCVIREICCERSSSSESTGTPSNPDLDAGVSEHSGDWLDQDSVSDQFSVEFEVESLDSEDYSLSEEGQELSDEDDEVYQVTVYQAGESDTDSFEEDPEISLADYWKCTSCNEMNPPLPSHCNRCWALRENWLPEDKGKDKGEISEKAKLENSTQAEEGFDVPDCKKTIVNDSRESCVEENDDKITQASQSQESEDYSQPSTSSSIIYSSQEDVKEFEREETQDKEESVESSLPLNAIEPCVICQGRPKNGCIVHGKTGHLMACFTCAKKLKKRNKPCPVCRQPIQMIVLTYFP

Regarding `COc1ccc(C#N)cc1-c1nc2c(n1C(C)C)[C@@]1(C(=O)Nc3cc(Cl)ccc31)N(c1cc(Cl)ccc1C)C2=O` [Example S-13, (S)-3-(6-chloro-5′-(5-chloro-2-methylphenyl)-3′-isopropyl-2,6′-dioxo-5′,6′-dihydro-3′H-spiro[dihydroindole-3,4′-pyrrolo[3,4-d]imidazole]-2′-yl)-4-methoxybenzonitrile], the IC50 in experiment [1] was determined as 2.55 nM; in experiment [2], 5.95 nM.
`COc1ncc(-c2nc3c(n2C(C)C)[C@]2(C(=O)Nc4cc(Cl)ccc42)N(c2ccc(C)c(Cl)c2)C3=O)c(OC)n1` [Example R-20, (R)-6-chloro-5′-(3-chloro-4-methylphenyl)-2′-(2,4-dimethoxypyrimidin-5-yl)-3′-isopropyl-3′H-spiro[dihydroindole-3,4′-pyrrolo[3,4-d]imidazole]-2,6′(5′H)-dione]: the IC50 in experiment [1] is 256 nM; in experiment [2], 4010 nM.
`COc1ccc(N2C(=O)c3nc(-c4ccc(N)cc4OC)n(C(C)C)c3[C@@]23C(=O)Nc2cc(Cl)ccc23)cc1Cl` [Example S-71, (S)-2′-(4-amino-2-methoxyphenyl)-6-chloro-5′-(3-chloro-4-methoxyphenyl)-3′-isopropyl-3′H-spiro[dihydroindole-3,4′-pyrrolo[3,4-d]imidazole]-2,6′(5′H)-dione]: the IC50 in experiment [1] stood at 2.96 nM; in experiment [2] it was 292 nM.
As to `COc1cc(N)c(C)cc1-c1nc2c(n1C(C)C)C1(C(=O)Nc3cc(Cl)ccc31)N(c1cc(Cl)ccc1C)C2=O` (stereo not drawn) [Example 74, 2′-(4-amino-2-methoxy-5-methylphenyl)-6-chloro-5′-(5-chloro-2-methylphenyl)-3′-isopropyl-3′H-spiro[dihydroindole-3,4′-pyrrolo[3,4-d]imidazole]-2,6′(5′H)-dione], the “inhibitory effect on MDM2 compared with positive control compound HDM201” value in experiment [1] is given as “better”. Further, in experiment [2], the “inhibitory effect on human osteosarcoma cell line SJSA-1 compared with positive control compound HDM201” value is recorded as “better”.
On to `COc1nc(C2CC2)ncc1-c1nc2c(n1C(C)C)[C@]1(C(=O)Nc3cc(Cl)ccc31)N(c1cc(Cl)cnc1C)C2=O` [Example R-159, (R)-6-chloro-5′-(5-chloro-2-methylpyridin-3-yl)-2′-(2-cyclopropyl-4-methoxypyrimidin-5-yl)-3′-isopropyl-3′H-spiro[dihydroindole-3,4′-pyrrolo[3,4-d]imidazole]-2,6′(5′H)-dione], for which the IC50 in experiment [1] came to 468 nM; in experiment [2] it was 5330 nM.
As to `COc1ccc(C(=O)N(C)C)cc1-c1nc2c(n1C(C)C)C1(C(=O)Nc3cc(Cl)ccc31)N(c1cc(Cl)ccc1C)C2=O` (stereo not drawn) [Example 22, 3-(6-chloro-5′-(5-chloro-2-methylphenyl)-3′-isopropyl-2,6′-dioxo-5′,6′-dihydro-3′H-spiro[dihydroindole-3,4′-pyrrolo[3,4-d]imidazole]-2′-yl)-4-methoxy-N,N-dimethylbenzamide], the “inhibitory effect on MDM2 compared with positive control compound HDM201” value in experiment [1] is listed as “better”. In addition, in experiment [2], the “inhibitory effect on human osteosarcoma cell line SJSA-1 compared with positive control compound HDM201” value was “better”.
As for `COc1nc(N(C)C)ccc1-c1nc2c(n1C(C)C)[C@@]1(C(=O)Nc3cc(Cl)ccc31)N(c1cc(Cl)ccc1C)C2=O` [Example S-157, (S)-6-chloro-5′-(5-chloro-2-methylphenyl)-2′-(6-(dimethylamino)-2-methoxypyridin-3-yl)-3′-isopropyl-3′H-spiro[dihydroindole-3,4′-pyrrolo[3,4-d]imidazole]-2,6′(5′H)-dione], the IC50 in experiment [1] came out at 3.81 nM; in experiment [2], 16.7 nM.
`COc1ccncc1-c1nc2c(n1C(C)C)[C@@]1(C(=O)Nc3cc(Cl)ccc31)N(c1cc(Cl)ccc1C)C2=O` [Example S-18, (S)-6-chloro-5′-(5-chloro-2-methylphenyl)-3′-isopropyl-2′-(4-methoxypyridin-3-yl)-3′H-spiro[dihydroindole-3,4′-pyrrolo[3,4-d]imidazole]-2,6′(5′H)-dione]: the IC50 in experiment [1] amounted to 1.43 nM; in experiment [2] it was 13.9 nM.
With `COc1cc(C(C)C)ncc1-c1nc2c(n1C(C)C)[C@@]1(C(=O)Nc3cc(Cl)ccc31)N(c1cc(Cl)ccc1C)C2=O` [Example S-164, (S)-6-chloro-5′-(5-chloro-2-methylphenyl)-3′-isopropyl-2′-(6-isopropyl-4-methoxypyridin-3-yl)-3′H-spiro[dihydroindole-3,4′-pyrrolo[3,4-d]imidazole]-2,6′(5′H)-dione], the IC50 came out at 0.94 nM in experiment [1] and 16.8 nM in experiment [2].
In the case of `CNc1ccc(-c2nc3c(n2C(C)C)[C@@]2(C(=O)Nc4cc(Cl)ccc42)N(c2cc(Cl)ccc2C)C3=O)c(OC)c1` [Example S-25, (S)-6-chloro-5′-(5-chloro-2-methylphenyl)-3′-isopropyl-2′-(2-methoxy-4-(methylamine)phenyl)-3′H-spiro[dihydroindole-3,4′-pyrrolo[3,4-d]imidazole]-2,6′(5′H)-dione], the IC50 stood at 2.52 nM in experiment [1] and 8.83 nM in experiment [2].
Turning to `COc1cc(N(C)C)c(F)cc1-c1nc2c(n1C(C)C)[C@@]1(C(=O)Nc3cc(Cl)ccc31)N(c1cc(Cl)ccc1C)C2=O` [Example S-78], the figures for the IC50 in experiment [1] and in experiment [2] were 1.42 nM and 7.88 nM, respectively.
For the compound `COc1cc(N)ccc1-c1nc2c(n1C(C)C)[C@]1(C(=O)Nc3cc(Cl)ccc31)N(c1cc(F)cc(Cl)c1)C2=O` [Example R-67, (R)-2′-(4-amino-2-methoxyphenyl)-6-chloro-5′-(3-chloro-5-fluorophenyl)-3′-isopropyl-3′H-spiro[dihydroindole-3,4′-pyrrolo[3,4-d]imidazole]-2,6′(5′H)-dione], the IC50 in experiment [1] is 355 nM; in experiment [2], 8490 nM.
Consider `COc1cc(OCC(F)F)ncc1-c1nc2c(n1C(C)C)[C@@]1(C(=O)Nc3cc(Cl)ccc31)N(c1cc(Cl)ccc1C)C2=O` [Example S-153, (S)-6-chloro-5′-(5-chloro-2-methylphenyl)-2′-(6-(2,2-difluoroethoxy)-4-methoxypyridin-3-yl)-3′-isopropyl-3′H-spiro[dihydroindole-3,4′-pyrrolo[3,4-d]imidazole]-2,6′(5′H)-dione], for which the IC50 in experiment [1] amounted to 0.49 nM; in experiment [2], 22 nM.
`COc1cc(CN(C)C)ccc1-c1nc2c(n1C(C)C)[C@@]1(C(=O)Nc3cc(Cl)ccc31)N(c1cc(Cl)ccc1C)C2=O` [Example S-47, (S)-6-chloro-5′-(5-chloro-2-methylphenyl)-2′-(4-((dimethylamino)methyl)-2-methoxyphenyl)-3′-isopropyl-3′H-spiro[dihydroindole-3,4′-pyrrolo[3,4-d]imidazole]-2,6′(5′H)-dione]: the IC50 in experiment [1] was 4.16 nM; in experiment [2], 14 nM.
With `COc1cc(OCCO)ccc1-c1nc2c(n1C(C)C)[C@@]1(C(=O)Nc3cc(Cl)ccc31)N(c1cc(Cl)ccc1C)C2=O` [Example S-148, (S)-6-chloro-5′-(5-chloro-2-methylphenyl)-2′-(4-(2-hydroxyethoxy)-2-methoxyphenyl)-3′-isopropyl-3′H-spiro[dihydroindole-3,4′-pyrrolo[3,4-d]imidazole]-2,6′(5′H)-dione], the values for the IC50 in experiment [1] and in experiment [2] were 1.58 nM and 71.8 nM, respectively.
On to `COc1ncc(-c2nc3c(n2C(C)C)[C@]2(C(=O)Nc4cc(Cl)ccc42)N(c2cc(Cl)ccc2C)C3=O)c(OC)n1` [Example R-2, (R)-6-chloro-5′-(5-chloro-2-methylphenyl)-2′-(2,4-dimethoxypyrimidin-5-yl)-3′-isopropyl-3′H-spiro[dihydroindole-3,4′-pyrrolo[3,4-d]imidazole]-2,6′(5′H)-dione], for which the IC50 was 117 nM in experiment [1] and 2770 nM in experiment [2].
On to `COc1cc(N(C)C)c(F)cc1-c1nc2c(n1C(C)C)C1(C(=O)Nc3cc(Cl)ccc31)N(c1cc(Cl)ccc1C)C2=O` (stereo not drawn) [Example 78], for which the “inhibitory effect on MDM2 compared with positive control compound HDM201” value in experiment [1] was “better”. For the same compound, the “inhibitory effect on human osteosarcoma cell line SJSA-1 compared with positive control compound HDM201” value in experiment [2] was “better”.
On to `CNc1ccc(-c2nc3c(n2C(C)C)[C@]2(C(=O)Nc4cc(Cl)ccc42)N(c2cc(Cl)ccc2C)C3=O)c(OC)c1` [Example R-25, (R)-6-chloro-5′-(5-chloro-2-methylphenyl)-3′-isopropyl-2′-(2-methoxy-4-(methylamine)phenyl)-3′H-spiro[dihydroindole-3,4′-pyrrolo[3,4-d]imidazole]-2,6′(5′H)-dione], for which the IC50 turned out to be 51.9 nM in experiment [1] and 265 nM in experiment [2].
As to `COc1ccc(C)cc1-c1nc2c(n1C(C)C)[C@@]1(C(=O)Nc3cc(Cl)ccc31)N(c1cc(Cl)ccc1C)C2=O` [Example S-62, (S)-6-chloro-5′-(5-chloro-2-methylphenyl)-3′-isopropyl-2′-(2-methoxy-5-methylphenyl)-3′H-spiro[dihydroindole-3,4′-pyrrolo[3,4-d]imidazole]-2,6′(5′H)-dione], the IC50 in experiment [1] came out at 1.61 nM; in experiment [2], 10.5 nM.
For `CCOc1ncc(-c2nc3c(n2C(C)C)[C@]2(C(=O)Nc4cc(Cl)ccc42)N(c2cc(Cl)ccc2C)C3=O)c(OC)n1` [Example R-127, (R)-6-chloro-5′-(5-chloro-2-methylphenyl)-2′-(2-ethoxy-4-methoxypyrimidin-5-yl)-3′-isopropyl-3′H-spiro[dihydroindole-3,4′-pyrrolo[3,4-d]imidazole]-2,6′(5′H)-dione], the IC50 in experiment [1] was determined as 91 nM; in experiment [2], 1570 nM.
`COc1cc(OC)c(-c2nc3c(n2C(C)C)[C@]2(C(=O)Nc4cc(Cl)ccc42)N(c2cc(Cl)ccc2C)C3=O)cn1` [Example R-11, (R)-6-chloro-5′-(5-chloro-2-methylphenyl)-2′-(4,6-dimethoxypyridin-3-yl)-3′-isopropyl-3′H-spiro[dihydroindole-3,4′-pyrrolo[3,4-d]imidazole]-2,6′(5′H)-dione]: the IC50 in experiment [1] was 257 nM; in experiment [2] it was 1510 nM.
